Source: ChEMBL document CHEMBL4308885, “The development of myeloperoxidase inhibitors” (Bioorg Med Chem Lett, 2019)

Legend:
Myeloperoxidase [1] = target: T1, Myeloperoxidase (Homo sapiens, UniProt P05164); assay: Inhibition of MPO in human neutrophils using H2O2 as substrate measured after 5 mins
T1 sequence (P05164 whole entry): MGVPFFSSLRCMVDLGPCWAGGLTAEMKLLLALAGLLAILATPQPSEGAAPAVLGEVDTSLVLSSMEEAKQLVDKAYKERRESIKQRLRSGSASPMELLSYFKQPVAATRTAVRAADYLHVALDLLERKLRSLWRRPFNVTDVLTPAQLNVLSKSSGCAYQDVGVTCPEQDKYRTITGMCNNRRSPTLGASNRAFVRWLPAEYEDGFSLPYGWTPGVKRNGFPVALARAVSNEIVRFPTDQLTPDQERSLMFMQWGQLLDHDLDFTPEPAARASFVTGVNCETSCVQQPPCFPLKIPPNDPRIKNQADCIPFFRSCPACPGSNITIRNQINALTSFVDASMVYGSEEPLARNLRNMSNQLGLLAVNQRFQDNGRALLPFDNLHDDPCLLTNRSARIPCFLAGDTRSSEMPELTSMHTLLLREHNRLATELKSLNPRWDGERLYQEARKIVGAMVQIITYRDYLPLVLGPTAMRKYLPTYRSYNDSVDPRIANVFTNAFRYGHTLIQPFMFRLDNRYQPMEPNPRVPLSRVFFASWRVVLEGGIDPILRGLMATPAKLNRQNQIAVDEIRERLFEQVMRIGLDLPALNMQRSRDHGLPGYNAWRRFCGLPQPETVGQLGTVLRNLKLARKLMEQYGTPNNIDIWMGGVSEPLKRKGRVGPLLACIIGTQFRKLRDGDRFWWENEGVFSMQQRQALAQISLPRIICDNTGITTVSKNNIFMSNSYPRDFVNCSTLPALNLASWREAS

Myeloperoxidase [2] = target: T1, Myeloperoxidase; assay: Inhibition of MPO (unknown origin)
[3] = target: T2, Myeloperoxidase (Homo sapiens) (UniProt P05164); assay: Inhibition of MPO in human neutrophils assessed as reduction in PMA-stimulated HOCl production at 1 uM relative to control
T2 sequence (whole entry): T1 sequence (P05164 whole entry)

[4] = target: T2, Myeloperoxidase (Homo sapiens); assay: Inhibition of MPO in human neutrophils at 10'4 M using H2O2 as substrate measured for 30 secs in presence of o-dianisidine hydrochloride by spectrophotometric method relative to control
Myeloperoxidase [5] = target: T1, Myeloperoxidase; assay: Inhibition of MPO (unknown origin) using H2O2 as substrate

NNC(=O)c1ccc(O)cc1
IC50 (Myeloperoxidase [1]): 2000 nM

CC(C)OCCn1c(=S)[nH]c(=O)c2[nH]ccc21
IC50 (Myeloperoxidase [2]): 630 nM

O=c1[nH]c(=S)n(C[C@H]2CCCO2)c2nc[nH]c12
inhibition [3]: 90%

O=c1c(O)c(-c2ccc(O)c(O)c2)oc2cc(O)cc(O)c12
inhibition [4]: 100%

CC(=O)Oc1ccccc1C(=O)O [ASPIRIN]
IC50 (Myeloperoxidase [2]): 200000 nM

Nc1ccc(S(=O)(=O)c2ccc(N)cc2)cc1 [DAPSONE]
IC50 (Myeloperoxidase [2]): 420 nM

COc1ccc2[nH]cc(CCNC(C)=O)c2c1 [MELATONIN]
IC50 (Myeloperoxidase [5]): 3000 nM

N[C@@H](Cc1c[nH]c2ccccc12)C(=O)O [TRYPTOPHAN]
IC50 (Myeloperoxidase [5]): 2250 nM
